Assay results published in patent publication US6020121A (priority 1996, dated 2000).
Entries after “also recorded” stand apart in the source; their conditions may differ. Where a SMILES comes first, the peptide text is derived from it. The star is where a group is joined. Cbz = O=C(OCc1ccccc1)*; Bz = O=C(c1ccccc1)*

Tests used:
[1] = test system: Staphylococcus aureus strain 8325-4/pMP25; assay: Growth in presence of test compounds in the Agr screen; conditions: compared to untreated Agr+ cells; screen at 10 μg/ml final, 6 hours, 35° C.
Agr P3 promoter = assay: Agr P3-β-lactamase fusion screen: β-lactamase activity; conditions: for Status from algorithm: Table 3; for β-Lactamase inhibition: corrected for cell density, screen at 10 μg/ml final, 6 hours, 35° C., negative = induction; for Behaviour in the P3-β-lactamase screen (in words): text
[2] = test system: B. subtilis strain 168 sporulation; assay: Sporulation; format: cell-based, Bacillus subtilis; conditions: B. subtilis strain 168, compared to untreated controls
Excerpt: Sporulation: Sporulation is a well-characterized event in many organisms, including Bacillus subtilis (spoIIJ/spo0A or spoIIJ/spo0F, Losick et al., Annu. Rev. Genet. 20:625-669 (1986); Smith, The initiation of sporulation,pp. 185-210, In I. Smith et al. eds., Regulation of procaryotic development, American Society for Microbiology, Washington, D.C. (1989)). It can be induced in various media (Leighton and Doi, J. Biol. Chem. 246:3189-3195 (1971); Piggot and Curtis, J. Bacteriol. 169:1260-1266 (1987)), and can be easily assayed (Nicholson and Setlow, Sporulation, germination, and outgrowth, pp. 391-429, In C. R. Harwood and S. M. Cutting eds., Molecular biological methods for Bacillus, John Wiley and Sons, Ltd., Chichester, West Sussex, England (1990)). Briefly, by heating the cells to 80-85° C. for 15-20 min, undifferentiated cells are killed while spores survive. Therefore, by determining the difference in viable cell count of control cultures versus heat treated cultures, it is possible to calculate the percent sporulation for a given culture or condition. Compounds that inhibit the signal transduction system responsible for the induction of sporulation will lower the viable cell count of the heat treated culture.

protein A = assay: Protein A expression immunoblot; format: cell-based, Staphylococcus aureus; conditions: Table 4; relative to Agr- mutant cells
Procedure: FIG. 18. Immunodetection of staphylococcal protein A in treated and untreated cultures. Cells were grown in presence of compounds 1, 2, or 3 to a similar density (O.D. 600 nm--0.5-0.6). Cells were lysed using lysostaphin prior to separation of cell surface proteins by SDS-PAGE. After electrophoretic transfer of proteins from the gel onto a nitrocellulose membrane, detection of protein A on the blot was possible by using a specific anti-protein A antibody and a second antibody that allowed chemiluminescent detection of immune complexes. The chemiluminescence was captured by autoradiography.
Protein A. Protein A expression is assayed by immunoblots of SDS-Page separated total cell proteins (Patel et al., Infection and Immunity 55:3103-3110 (1987)).

RNAIII [3] = assay: RNAIII Northern Blot
RNAIII [4] = assay: RNAIII Northern Blot in clinical strains; format: cell-based, Staphylococcus aureus; conditions: several clinical strains of S. aureus (no. 212, 213, 215, and 217), FIG. 20
Excerpt: FIG. 20. Northern Blots for RNAIII detection in several clinical strains of S. aureus (no. 212, 213, 215, and 217) grown in the presence of Compound 10. Untreated strain 8325-4 (Agr+) is also represented and acts as a control to show the maximal amounts of RNAIII also detected in all clinical strains grown without the test compound.

[5] = test system: S. typhimurium chemotaxis; assay: Chemotaxis (swarm agar plates); format: cell-based, Salmonella typhimurium; conditions: S. typhimurium on ribose-containing swarm agar plates
Excerpt: Chemotaxis: Motility has been studied in a variety of bacteria. The molecular mechanisms of motility have been best characterized in E. coli and S. typhimurium but analogs of the molecular components have been detected in both Gram-negative and Gram-positive organisms (Morgan et al., J. Bacteriol. 175:133-140 (1993)). A two-component regulatory system composed of either cheA/cheY or cheA/cheB (Stewart and Dahlquist, Chem. Rev. 87:997-1025 (1987); MacNab, Motility and Chemotaxis, pp. 732-759, In F. C. Neidhardt, et al., ed., Escherichia coli and Salmonella typhimurium: cellular and molecular biology, American Society for Microbiology, Washington, D.C. (1987)), is central to the ability of these organisms to detect and respond appropriately to chemical substances. Such response can be detected on minimal swarm agar plates containing a chemoattractant (sugars or amino acids) (J. S. Parkinson, J. Bacteriol. 126:758-770 (1976)), or a capillary assay system, in which chemoattractant is placed in a capillary tube and immersed in a liquid bacterial culture. Bacteria capable of chemotaxis will swim into the capillary and can be detected by performing viable cell counts (Adler, J. Gen. Microbiol. 74:77-91 (1973)). […]

alpha-hemolysin = format: cell-based, Staphylococcus aureus
Staphylococcus aureus = assay: Mucin-enhanced murine peritonitis model; format: in vivo, mice (Balb/c); conditions: challenge dose of 10^10 cfu; 3.15 mg/kg

SMILES: C=C(C)C=CCC1C(C)(O)CCC2C(C)(C)CCCC21C (stereo not shown) [Compound 1]
- Growth [1]: 105%
- Status from algorithm (Agr P3 promoter): Active
- β-Lactamase inhibition (Agr P3 promoter): 75%

SMILES: CC(=O)OC1CCC2(C)C(CC(=O)C3(C)C2CCC2(C)C(c4ccoc4)OC(=O)C4OC423)C1(C)C (stereo not shown) [Compound 2]
- Growth [1]: 122%
- Status from algorithm (Agr P3 promoter): Active
- β-Lactamase inhibition (Agr P3 promoter): 84%

SMILES: CC(=O)OC1CC2C(C)(C)CCCC2(C)C2CCC3(C)C(=CC(=O)OC3c3ccoc3)C12C (stereo not shown) [Compound 3]
- Growth [1]: 70%
- decrease in percent sporulation [2]: more than 50%
- Status from algorithm (Agr P3 promoter): GR and Active
- β-Lactamase inhibition (Agr P3 promoter): 83%

SMILES: CC(=O)OC1CCC2(C)C(CCC3C4CC5OC6(CCC(C)CO6)C(C)C5C(C)=C4CC32)C1 (stereo not shown) [Compound 6]
- Growth [1]: 72%
- Protein A expression (protein A): [+]
- Status from algorithm (Agr P3 promoter): GR and Inducer
- β-Lactamase inhibition (Agr P3 promoter): -111%
- Behaviour in the P3-β-lactamase screen (in words) (Agr P3 promoter): enhance the production of β-lactamase; also recorded: showed inducer rather than inhibitor activity
- Behaviour in the P3-β-lactamase screen (in words) (Agr P3 promoter; listed as compound 6): increased activity of the β-lactamase reporter
- RNAIII production (in words) (RNAIII [3]; FIGS. 14 and 15): allowed overexpression of RNAIII
- RNAIII production (in words) (RNAIII [3]; FIGS. 14 and 15, listed as compound 6): marked increase in RNAIII

SMILES: CC(C)CC(NC(=O)OCc1ccccc1)C(=O)NC(Cc1ccc(O)cc1)C(N)=O (stereo not drawn) [Compound 7] (Cbz-Leu-Tyr-NH2; configuration not given here)
- Growth [1]: 103%
- Status from algorithm (Agr P3 promoter): Active
- β-Lactamase inhibition (Agr P3 promoter): 87%

SMILES: CC(C)CC(NC(=O)c1ccccc1)C(=O)NC(Cc1ccc(O)cc1)C(N)=O (stereo not drawn) [Compound 8] (Bz-Leu-Tyr-NH2; configuration not given here)
- Growth [1]: 101%
- Status from algorithm (Agr P3 promoter): Active
- β-Lactamase inhibition (Agr P3 promoter): 84%

SMILES: CCCc1c(C(=O)Nc2cccc(C(F)(F)F)c2)cnn1-c1ccccc1 [Compound 9]
- Growth [1]: 91%
- Status from algorithm (Agr P3 promoter): Active
- β-Lactamase inhibition (Agr P3 promoter): 86%

SMILES: O=C(Nc1ccccc1)OC(Cc1ccccc1)C(F)(F)F (stereo not shown) [Compound 10]
- Growth [1]: 107%
- RNAIII expression in clinical strains (in words) (RNAIII [4]): greatly reduced
- Status from algorithm (Agr P3 promoter): Active
- β-Lactamase inhibition (Agr P3 promoter): 84%

SMILES: CC(CS)=NOC(=O)c1c(-c2ccccc2)noc1C [Compound 11]
- Growth [1]: 104%
- chemotaxis effect (in words) [5]: deregulated chemotaxis and enhanced swarm diameters of S. typhimurium; also recorded: not a chemi-attractant or -repellant itself
- Status from algorithm (Agr P3 promoter): Active
- β-Lactamase inhibition (Agr P3 promoter): 77%

SMILES: Cc1cc(C(F)(F)F)cc(N(C)NC2OC(=O)c3ccccc32)n1 (stereo not shown) [Compound 12]
- Growth [1]: 124%
- Status from algorithm (Agr P3 promoter): Active
- β-Lactamase inhibition (Agr P3 promoter): 76%

SMILES: Cc1ccc(NN=C(C#N)C(=O)c2cc(C)nn2C(C)(C)C)cc1 [Compound 13]
- Growth [1]: 111%
- Status from algorithm (Agr P3 promoter): Active
- β-Lactamase inhibition (Agr P3 promoter): 75%

SMILES: O=S(=O)(Nc1cc(C(F)(F)F)cc(C(F)(F)F)c1)c1cccc2nsnc12 [Compound 14]
- Growth [1]: 94%
- decrease in percent sporulation [2]: more than 50%
- Status from algorithm (Agr P3 promoter): Active
- β-Lactamase inhibition (Agr P3 promoter): 77%

SMILES: C=C1C(=O)OC2CC1C(OC(C)=O)CC(C)=CCCC(C)=CCCC2(C)O (stereo not shown) [Compound 15]
- Growth [1]: 101%
- Status from algorithm (Agr P3 promoter): Active
- β-Lactamase inhibition (Agr P3 promoter): 76%

SMILES: O=C(O)/C=C/c1ccc(Sc2ccc(Br)cc2)c([N+](=O)[O-])c1 [Compound 16]
- Growth [1]: 106%
- Status from algorithm (Agr P3 promoter): Active
- β-Lactamase inhibition (Agr P3 promoter): 78%

SMILES: CN(C)/C=C/C(=O)c1sc(SCc2ccc(Cl)cc2)c2c1CC(C)(C)CC2=O [Compound 17]
- Growth [1]: 87%
- Status from algorithm (Agr P3 promoter): Active
- β-Lactamase inhibition (Agr P3 promoter): 83%

SMILES: O=C1OC(c2cccnc2Sc2ccc(Cl)cc2)=NC1=Cc1ccc(C(F)(F)F)cc1 [Compound 18]
- Growth [1]: 89%
- Status from algorithm (Agr P3 promoter): Active
- β-Lactamase inhibition (Agr P3 promoter): 75%

SMILES: CCCCCCCCCCCC(=O)OCC(O)CO (stereo not shown) [GML, Glycerol monolaureate, reference compound]
- Behaviour in the P3-β-lactamase screen (in words) (Agr P3 promoter): did not qualify as a hit in the screen
- RNAIII production (in words) (RNAIII [3]; FIGS. 14 and 15): showed no effect on RNAIII; also recorded: has no effect on RNAIII production

SMILES: O=C(O)c1cn(C2CC2)c2cc(N3CCNCC3)c(F)cc2c1=O [ciprofloxacin, reference compound]
- alpha-hemolysin activity (in words) (alpha-hemolysin): did not inhibit alpha-hemolysin activity
- Behaviour in the P3-β-lactamase screen (in words) (Agr P3 promoter): do not behave as hits

SMILES: CN[C@H](CC(C)C)C(=O)N[C@H]1C(=O)N[C@@H](CC(N)=O)C(=O)N[C@H]2C(=O)N[C@H]3C(=O)N[C@H](C(=O)N[C@H](C(=O)O)c4cc(O)cc(O)c4-c4cc3ccc4O)[C@H](O)c3ccc(c(Cl)c3)Oc3cc2cc(c3O[C@@H]2O[C@H](CO)[C@@H](O)[C@H](O)[C@H]2O[C@H]2C[C@](C)(N)[C@H](O)[C@H](C)O2)Oc2ccc(cc2Cl)[C@H]1O [vancomycin]
- treatment of infection (in words) (Staphylococcus aureus): treatable
- alpha-hemolysin activity (in words) (alpha-hemolysin): did not inhibit alpha-hemolysin activity
- Behaviour in the P3-β-lactamase screen (in words) (Agr P3 promoter): do not behave as hits
